# In patent US8835462B2, “Macrocyclic picolinamides as fungicides” (Dow AgroSciences LLC, priority 2012, dated 2014):
# Where two headings read alike, the source gives them in different places.
# Tests used:
# Format in all cases: in vivo
# [1] = tested on: Mycosphaerella graminicola; Anamorph: Septoria tritici; assay: Leaf blotch of wheat (SEPTTR) fungicidal activity on wheat seedlings; settings: Zymoseptoria tritici
# Procedure: Evaluation of Fungicidal Activity: Leaf Blotch of Wheat (Mycosphaerella Graminicola; Anamorph: Septoria tritici; Bayer Code […]) Technical grades of materials were dissolved in acetone, which were then mixed with nine volumes of water containing 110 ppm Triton X-100. The fungicide solutions were applied onto wheat seedlings using an automated booth sprayer to run-off. All sprayed plants were allowed to air dry prior to further handling. Wheat plants (variety Yuma) were grown from seed in a greenhouse in 50% mineral soil/50% soil-less Metro mix until the first leaf was fully emerged, with 7-10 seedlings per pot. These plants were inoculated with an aqueous spore suspension of Septoria tritici either prior to or after fungicide treatments. After inoculation the plants were kept in 100% relative humidity (one day in a dark dew chamber followed by two to three days in a lighted dew chamber at 20° C.) to permit spores to germinate and infect the leaf. The plants were then transferred to a greenhouse set at 20° C. for disease to develop. When disease symptoms were fully expressed on the 1st leaves of untreated plants, infection levels were assessed on a scale of 0 to 100 percent disease severity. Percent disease control was calculated using the ratio of disease severity on treated plants relative to untreated plants.
# [2] = tested on: Puccinia triticina; assay: Wheat brown rust (PUCCRT) fungicidal activity on wheat seedlings
# Procedure: Technical grades of materials were dissolved in acetone, which were then mixed with nine volumes of water containing 110 ppm Triton X-100. The fungicide solutions were applied onto wheat seedlings using an automated booth sprayer to run-off. All sprayed plants were allowed to air dry prior to further handling. Wheat plants (variety Yuma) were grown from seed in a greenhouse in 50% mineral soil/50% soil-less Metro mix until the first leaf was fully emerged, with 7-10 seedlings per pot. These plants were inoculated with an aqueous spore suspension of Septoria tritici either prior to or after fungicide treatments. After inoculation the plants were kept in 100% relative humidity (one day in a dark dew chamber followed by two to three days in a lighted dew chamber at 20° C.) to permit spores to germinate and infect the leaf. The plants were then transferred to a greenhouse set at 20° C. for disease to develop. When disease symptoms were fully expressed on the 1st leaves of untreated plants, infection levels were assessed on a scale of 0 to 100 percent disease severity. Percent disease control was calculated using the ratio of disease severity on treated plants relative to untreated plants. Evaluation of Fungicidal Activity: Wheat Brown Rust (Puccinia triticina; Synonym: Puccinia recondita f. sp. tritici; Bayer Code PUCCRT) Wheat plants (variety Yuma) were grown from seed in a greenhouse in 50% mineral soil/50% soil-less Metro mix until the first leaf was fully emerged, with 7-10 seedlings per pot. These plants were inoculated with an aqueous spore suspension of Puccinia triticina either prior to or after fungicide treatments. After inoculation the plants were kept in a dark dew room at 22° C. with 100% relative humidity overnight to permit spores to germinate and infect the leaf. The plants were then transferred to a greenhouse set at 24° C. for disease to develop. Fungicide formulation, application and disease assessment followed the procedures as described in the Example A.
# [3] = tested on: Puccinia triticina; assay: Fungicide mobility (dropline mobility test), wheat brown rust (PUCCRT); settings: 1 ug/leaf, disease-free zone as percent of distance from marked line to leaf tip; for Dropline Mobility Test PUCCRT 1 DPM: 1 Day Protectant Mobility; for Dropline Mobility Test PUCCRT 3 DCM: 3 Day Curative Mobility
# Procedure: Evaluation of Fungicide Mobility: Wheat Brown Rust (Puccinia Triticina; Synonym: Puccinia recondita f. sp. Tritici; Bayer Code PUCCRT):
# “Yuma” wheat seedlings were used in the test. One mg of compound was dissolved in 9 μl of EC blank (emulsifiable concentrate) and 500 μl of acetone. Acetone was then evaporated overnight by leaving the vial open in a fume hood. Two milliliters of water containing 110 ppm Triton X-100 was added to each vial to prepare application solutions. A […] drop of formulated material was applied to a marked line on the adaxial surface 5 cm from the leaf tip of the primary leaves. The primary leaves were kept in a horizontal position. Each treatment had 6 replicates. Plants were inoculated with PUCCRT 1-day after (1DPM) or 3-day prior to (3DCM) compound applications. When rust was fully expressed on primary leaves on control plants, the zone of treated leaves that was disease-free in the acropetal direction was measured with a ruler and converted to percent of the distance from marked line to leaf tip.
# [4] = 24 h, 1 Day Protectant, read-out: Disease Control SEPTTR 1 DP
# [5] = 72 h, 3 Day Curative, read-out: Disease Control SEPTTR 3 DC
# [6] = 24 h, 1 Day Protectant, read-out: Disease Control PUCCRT 1 DP
# [7] = 72 h, 3 Day Curative, read-out: Disease Control PUCCRT 3 DC
Structure (SMILES),"pest or weed control at 100 ppm [1, 4] [%]","pest or weed control at 100 ppm [1, 5] [%]","pest or weed control at 100 ppm [2, 6] [%]","pest or weed control at 100 ppm [2, 7] [%]",Dropline Mobility Test PUCCRT 1 DPM [3],Dropline Mobility Test PUCCRT 3 DCM [3]
COC(=O)CCO[C@@H]1[C@@H](Cc2ccccc2)COC[C@H](NC(=O)c2nccc(OC)c2O)C(=O)O[C@H]1C [Compound 11],0 to 80,0 to 80,0 to 80,0 to 80,–,–
COC(=O)CCO[C@@H]1[C@@H](Cc2ccccc2)COC[C@H](NC(=O)c2nccc(OC)c2OCOC(C)=O)C(=O)O[C@H]1C [Compound 12],0 to 80,0 to 80,80 to 100,0 to 80,–,–
COc1ccnc(C(=O)N[C@H]2COC[C@H](Cc3ccccc3)[C@@H](OCCC(=O)N(C)C)[C@H](C)OC2=O)c1O [Compound 13],0 to 80,0 to 80,–,0 to 80,–,–
COCCCO[C@@H]1[C@@H](Cc2ccccc2)COC[C@H](NC(=O)c2nccc(OC)c2O)C(=O)O[C@H]1C [Compound 14],80 to 100,0 to 80,80 to 100,80 to 100,–,–
COc1ccnc(C(=O)N[C@H]2COC[C@H](Cc3ccccc3)[C@@H](OCCCC(F)(F)F)[C@H](C)OC2=O)c1O [Compound 18],80 to 100,80 to 100,80 to 100,80 to 100,B (More than 0-Less than 80),B (More than 0-Less than 80)
COc1ccnc(C(=O)N[C@H]2COC[C@H](Cc3ccccc3)[C@@H](OC/C=C/C(F)(F)F)[C@H](C)OC2=O)c1O [Compound 20],0 to 80,0 to 80,0 to 80,0 to 80,B (More than 0-Less than 80),–
CCCC(C)O[C@@H]1[C@@H](Cc2ccccc2)COC[C@H](NC(=O)c2nccc(OC)c2OCOC(C)=O)C(=O)O[C@H]1C (stereo partly shown) [Compound 24],80 to 100,80 to 100,80 to 100,80 to 100,B (More than 0-Less than 80),B (More than 0-Less than 80)
COc1ccnc(C(=O)N[C@H]2COC[C@H](Cc3ccccc3)[C@@H](OC/C=C/C(F)(F)F)[C@H](C)OC2=O)c1OCOC(C)=O [Compound 25],80 to 100,80 to 100,80 to 100,80 to 100,B (More than 0-Less than 80),–
COC(=O)/C=C/O[C@@H]1[C@@H](Cc2ccccc2)COC[C@H](NC(=O)c2nccc(OC)c2O)C(=O)O[C@H]1C [Compound 27],0 to 80,0 to 80,80 to 100,0 to 80,B (More than 0-Less than 80),B (More than 0-Less than 80)
COc1ccnc(C(=O)N[C@H]2COC[C@H](Cc3ccccc3)[C@@H](OCCCc3ccccc3)[C@H](C)OC2=O)c1O [Compound 28],0 to 80,0 to 80,80 to 100,80 to 100,B (More than 0-Less than 80),–
COc1ccnc(C(=O)N[C@H]2COC[C@H](Cc3ccccc3)[C@@H](OC3CCCCC3)[C@H](C)OC2=O)c1O [Compound 29],0 to 80,80 to 100,80 to 100,80 to 100,B (More than 0-Less than 80),B (More than 0-Less than 80)
COc1ccnc(C(=O)N[C@H]2COC[C@H](Cc3ccccc3)[C@@H](OC(=O)c3ccccc3)[C@H](C)OC2=O)c1O [Compound 30],0 to 80,0 to 80,80 to 100,0 to 80,B (More than 0-Less than 80),–
COc1ccnc(C(=O)N[C@H]2COC[C@H](Cc3ccccc3)[C@@H](OC(=O)C3CC3)[C@H](C)OC2=O)c1O [Compound 31],80 to 100,80 to 100,80 to 100,80 to 100,B (More than 0-Less than 80),B (More than 0-Less than 80)
COc1ccnc(C(=O)N[C@H]2COC[C@H](Cc3ccccc3)[C@@H](Oc3ccccc3)[C@H](C)OC2=O)c1O [Compound 33],80 to 100,80 to 100,80 to 100,80 to 100,B (More than 0-Less than 80),–
COc1ccnc(C(=O)N[C@H]2COC[C@H](Cc3ccccc3)[C@@H](OC3CCCCC3)[C@H](C)OC2=O)c1OCOC(C)=O [Compound 35],80 to 100,80 to 100,80 to 100,80 to 100,B (More than 0-Less than 80),–
COc1ccnc(C(=O)N[C@H]2COC[C@H](Cc3ccccc3)[C@@H](OCCC(C)C)[C@H](C)OC2=O)c1O [Compound 41],0 to 80,0 to 80,80 to 100,0 to 80,B (More than 0-Less than 80),B (More than 0-Less than 80)
COc1ccnc(C(=O)N[C@H]2COC[C@H](Cc3ccccc3)[C@@H](OCCC(C)C)[C@H](C)OC2=O)c1OCOC(C)=O [Compound 42],80 to 100,80 to 100,80 to 100,80 to 100,B (More than 0-Less than 80),B (More than 0-Less than 80)
COc1ccnc(C(=O)N[C@H]2COC[C@H](Cc3ccccc3)[C@@H](OCC(F)F)[C@H](C)OC2=O)c1O [Compound 43],80 to 100,80 to 100,80 to 100,80 to 100,A (80-100),B (More than 0-Less than 80)
COc1ccnc(C(=O)N[C@H]2COC[C@H](Cc3ccccc3)[C@@H](OCCC(C)OC)[C@H](C)OC2=O)c1O (stereo partly shown) [Compound 45],80 to 100,80 to 100,80 to 100,80 to 100,A (80-100),A (80-100)
COc1ccnc(C(=O)N[C@H]2COC[C@H](Cc3ccccc3)[C@@H](OC3CCCC3)[C@H](C)OC2=O)c1O [Compound 105],80 to 100,80 to 100,80 to 100,80 to 100,–,–
